Measurements as given in patent US6413990B1, “Arylsulphonamide-substituted benzimidazoles having tryptase-inhibiting activity” (Boehringer Ingelheim Pharma KG, priority 1999, dated 2002).
Where a name gives a salt, the structure may show the parent alone.

How the values were obtained:
rh beta tryptase = target: T1, rh beta tryptase (Homo sapiens, UniProt Q15661); test: tryptase inhibition test (cleavage of N-p-tosyl-Gly-Pro-Lys-para-nitroaniline, p-nitroaniline measured at 405 nm); type: biochemical; details: Tris HCl buffer pH 7.4 with calcium and heparin, 37° C., substrate 0.6 mM, 5 minutes pre-incubation, 5 minutes incubation
T1 construct: purchased Promega
T1 sequence (Q15661 31-275): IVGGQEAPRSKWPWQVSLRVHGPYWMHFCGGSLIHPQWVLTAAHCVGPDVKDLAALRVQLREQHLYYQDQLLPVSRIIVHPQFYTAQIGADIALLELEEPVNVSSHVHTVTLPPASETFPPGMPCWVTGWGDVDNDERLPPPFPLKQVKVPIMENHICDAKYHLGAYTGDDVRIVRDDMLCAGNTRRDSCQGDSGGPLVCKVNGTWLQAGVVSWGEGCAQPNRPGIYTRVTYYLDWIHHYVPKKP
Procedure: The compounds according to the invention are characterised by their tryptase-inhibiting activity. This ability to inhibit tryptase was investigated using the test described below.
The measurement is carried out in Tris HCl buffer (100 mM), which additionally contains calcium (5 mM) and heparin ([…]), at pH 7.4. The standard used is rh beta tryptase which may be obtained commercially from Promega, for example. The substrate used is N-p-tosyl-Gly-Pro-Lys-para-nitroaniline in a concentration of 0.6 mM. The substrate is digested with tryptase to form p-nitroaniline which can be measured at 405 nm. Usually, an incubation period of 5 minutes and an incubation temperature of 37° C. are chosen. The enzyme activity used is 0.91 U/ml. The measurements are carried out in an Autoanalyser (Cobas Bio) made by Hofmann LaRoche. The potential inhibitory substances are used in concentrations of 10 μM in the screening, the inhibition of the tryptase being given in percent. The IC50 is determined at over 70% inhibition (concentration at which 50% of the enzyme activity is inhibited). After 5 minutes pre-incubation of the potential inhibitory substances, the substrate is added to start the reaction, the formation of p-nitroaniline being taken as a measurement of the enzyme activity after 5 minutes, after testing the linearity.
The data obtained after carrying out the tests described above (IC50 values) can be found in Table 2.

Structure (SMILES) | IC50 (rh beta tryptase) [nM] | melting point [°C]
CCN(CC)CCN(c1ccc2c(c1)nc(CCc1ccc(C(=N)N)cc1)n2C)S(=O)(=O)c1cc(C(F)(F)F)cc(C(F)(F)F)c1 [Example 16, N-{2-[2-(4-amidinophenyl)-ethyl]-1-methyl-benzimidazol-5-yl}-N-2-diethylaminoethyl-[3,5-di-(trifluoromethyl)-benzenesulphonamide] dihydrochloride] | 25 | 
CCN(CC)CCN(c1ccc2c(c1)nc(CCc1ccc(C(=N)N)cc1)n2C)S(=O)(=O)c1cccc(N)c1 [Example 29, N-{2-[2-(4-amidinophenyl)-ethyl]-1-methyl-benzimidazol-5-yl}-N-2-diethylaminoethyl-(3-amino-benzenesulphonamide) dihydrochloride] | 52 | 
CCN(CC)CCN(c1ccc2c(c1)nc(CCc1ccc(C(N)=NO)cc1)n2C)S(=O)(=O)c1cccc(Br)c1 [Example 36, N-{2-[2-(4-amino-hydroximinomethyl)phenyl-ethyl]-1-methyl-benzimidazol-5-yl}-N-diethylaminoethyl-(3-bromo-benzenesulphonamide)] |  | 156
CCN(CC)CCN(c1ccc2c(c1)nc(CCc1ccc(C(=N)N)cc1)n2C)S(=O)(=O)c1cccc(C(F)(F)F)c1 [Example 18, N-{2-[2-(4-amidinophenyl)-ethyl]-1-methyl-benzimidazol-5-yl}-N-2-diethylaminoethyl-(3-trifluoromethyl-benzenesulphonamide) dihydrochloride] | 43 | 
CCN(CC)CCN(c1ccc2c(c1)nc(CCc1ccc(C(=N)N)cc1)n2C)S(=O)(=O)c1ccc2cc(O)ccc2c1 [Example 17, N-{2-[2-(4-amidinophenyl)-ethyl]-1-methyl-benzimidazol-5-yl}-N-2-diethylaminoethyl-(6-hydroxy-naphth-2-ylsulphonamide) dihydrochloride] | 280 | 
CCN(CC)CCN(c1ccc2c(c1)nc(CCc1ccc(C(=N)N)cc1)n2C)S(=O)(=O)c1ccc(N)cc1 (as salt: hydrochloride) [Example 8, N-{2-[2-(4-amidinophenyl)-ethyl]-1-methyl-benzimidazol-5-yl}-N-diethylaminoethyl-(4-amino-benzenesulphonamide)-tetrahydrochloride] |  | 190 to 205
CCN(CC)CCN(c1ccc2c(c1)nc(CCc1ccc(C(=N)N)cc1)n2C)S(=O)(=O)c1ccc(N)cc1 [Example 8, N-{2-[2-(4-amidinophenyl)-ethyl]-1-methyl-benzimidazol-5-yl}-N-diethylaminoethyl-(4-amino-benzenesulphonamide)-tetrahydrochloride] | 34 | 
CCN(CC)CCN(c1ccc2c(c1)nc(CCc1ccc(C(=N)N)cc1)n2C)S(=O)(=O)c1ccc(OC)cc1 (as salt: hydrochloride) [Example 12, N-{2-[2-(4-amidinophenyl)-ethyl]-1-methyl-benzimidazol-5-yl}-N-diethylaminoethyl-(4-methoxy-benzenesulphonamide)-trihydrochloride] |  | 190 to 200
CN(C)c1cccc2c(S(=O)(=O)N(Cc3ccncc3)c3ccc4c(c3)nc(CCc3ccc(C(=N)N)cc3)n4C)cccc12 [Example 25, N-{2-[2-(4-amidinophenyl)-ethyl]-1-methyl-benzimidazol-5-yl}-N-pyrid-4-ylmethyl-(dansylamide) dihydrochloride] | 36 | 
CN(C)c1cccc2c(S(=O)(=O)N(C)c3ccc4c(c3)nc(CCc3ccc(C(=N)N)cc3)n4C)cccc12 (as salt: hydrochloride) [Example 13, N-{2-[2-(4-amidinophenyl)-ethyl]-1-methyl-benzimidazol-5-yl}-N-methyl-(dansylamide)-hydrochloride] |  | 222 to 225
CCN(CC)CCN(c1ccc2c(c1)nc(CCc1ccc(C(=N)N)cc1)n2C)S(=O)(=O)c1cccc(C)c1 [Example 6, N-{2-[2-(4-amidinophenyl)-ethyl]-1-methyl-benzimidazol-5-yl}-N-diethylaminoethyl-(3-methyl-benzenesulphonamide)-hydrochloride] | 30 | 
CCN(CC)CCN(c1ccc2c(c1)nc(CCc1ccc(C(=N)N)cc1)n2C)S(=O)(=O)c1ccc(NC(C)=O)cc1 [Example 9, N-{2-[2-(4-amidinophenyl)-ethyl]-1-methyl-benzimidazol-5-yl}-N-diethylaminoethyl-(4-acetylamino-benzenesulphonamide)] | 44 | 
CCN(CC)CCN(c1ccc2c(c1)nc(CCc1ccc(C(=N)N)cc1)n2C)S(=O)(=O)c1cccc(Cl)c1 [Example 7, N-{2-[2-(4-amidinophenyl)-ethyl]-1-methyl-benzimidazol-5-yl}-N-diethylaminoethyl-(3-chloro-benzenesulphonamide)-hydrochloride] | 30 | 
CCN(CC)CCN(c1ccc2c(c1)nc(CCc1ccc(C(=N)N)cc1)n2C)S(=O)(=O)c1cccc([N+](=O)[O-])c1 [Example 28, N-{2-[2-(4-amidinophenyl)-ethyl]-1-methyl-benzimidazol-5-yl}-N-2-diethylaminoethyl-(3-nitro-benzenesulphonamide) dihydrochloride] | 44 | 

Continued by falling IC50 (rh beta tryptase), values first:

IC50 (rh beta tryptase) [nM] | melting point [°C] | Structure (SMILES)
24 |  | CCN(CC)CCN(c1ccc2c(c1)nc(CCc1ccc(C(=N)N)cc1)n2C)S(=O)(=O)c1cccc(OC)c1 [Example 5, N-{2-[2-(4-amidinophenyl)-ethyl]-1-methyl-benzimidazol-5-yl}-N-diethylaminoethyl-(3-methoxy-benzenesulphonamide)-hydrochloride]
23 |  | CCN(CC)CCN(c1ccc2c(c1)nc(CCc1ccc(C(=N)N)cc1)n2C)S(=O)(=O)c1ccc([N+](=O)[O-])cc1 [Example 4, N-{2-[2-(4-amidinophenyl)-ethyl]-1-methyl-benzimidazol-5-yl}-N-diethylaminoethyl-(4-nitro-benzenesulphonamide)-hydrochloride]
22 |  | CN(C)c1cccc2c(S(=O)(=O)N(CCN)c3ccc4c(c3)nc(CCc3ccc(C(=N)N)cc3)n4C)cccc12 [Example 20, N-{2-[2-(4-amidinophenyl)-ethyl]-1-methyl-benzimidazol-5-yl}-N-aminoethyl-(dansylamide) dihydrochloride]
17.3 |  | CCN(CC)CCN(c1ccc2c(c1)nc(CCc1ccc(C(=N)N)cc1)n2C)S(=O)(=O)c1ccc2cc(OC)ccc2c1 [Example 27, N-{2-[2-(4-amidinophenyl)-ethyl]-1-methyl-benzimidazol-5-yl}-N-diethylaminoethyl-(6-methoxy-naphth-2-ylsulphonamide) diacetate]
17 |  | CCN(CC)CCN(c1ccc2c(c1)nc(CCc1ccc(C(=N)N)cc1)n2C)S(=O)(=O)c1cccc(Br)c1 [Example 3, N-{2-[2-(4-amidinophenyl)-ethyl]-1-methyl-benzimidazol-5-yl}-N-diethylaminoethyl-(3-bromo-benzenesulphonamide)-hydrochloride]
14 |  | CN(C)c1cccc2c(S(=O)(=O)N(Cc3ccccn3)c3ccc4c(c3)nc(CCc3ccc(C(=N)N)cc3)n4C)cccc12 [Example 22, N-{2-[2-(4-amidinophenyl)-ethyl]-1-methyl-benzimidazol-5-yl}-N-pyrid-2-ylmethyl-(dansylamide) dihydrochloride]
13 |  | CCN(CC)CCN(c1ccc2c(c1)nc(CCc1ccc(C(=N)N)cc1)n2C)S(=O)(=O)c1cccc2cccc(Cl)c12 [Example 24, N-{2-[2-(4-amidinophenyl)-ethyl]-1-methyl-benzimidazol-5-yl}-N-diethylaminoethyl-(8-chloronaphth-1-ylsulphonamide) dihydrochloride]
13 |  | CN(C)c1cccc2c(S(=O)(=O)N(Cc3cccnc3)c3ccc4c(c3)nc(CCc3ccc(C(=N)N)cc3)n4C)cccc12 [Example 23, N-{2-[2-(4-amidinophenyl)-ethyl]-1-methyl-benzimidazol-5-yl}-N-pyrid-3-ylmethyl-(dansylamide) dihydrochloride]
9.7 |  | CCOC(=O)c1ccc(S(=O)(=O)N(CCN(CC)CC)c2ccc3c(c2)nc(CCc2ccc(C(=N)N)cc2)n3C)cc1 [Example 1, N-{2-[2-(4-amidinophenyl)-ethyl]-1-methyl-benzimidazol-5-yl}-N-diethylaminoethyl-(4-ethoxycarbonyl-benzenesulphonamide)-hydrochloride]
8.8 |  | CCN(CC)CCN(c1ccc2c(c1)nc(CCc1ccc(C(=N)N)cc1)n2C)S(=O)(=O)c1cccc(C(C)(C)c2ccccc2)c1 [Example 19, N-{2-[2-(4-amidinophenyl)-ethyl]-1-methyl-benzimidazol-5-yl}-N-2-diethylaminoethyl-[3-(1-methyl-1-phenyl-ethyl)-benzenesulphonamide] dihydrochloride]
7.6 |  | Cn1c(CCc2ccc(C(=N)N)cc2)nc2cc(N(Cc3ccccc3)S(=O)(=O)c3ccc(C(C)(C)C)cc3)ccc21 [Example 26, N-{2-[2-(4-amidinophenyl)-ethyl]-1-methyl-benzimidazol-5-yl}-N-benzyl-(4-tert-butyl-benzenesulphonamide) dihydrochloride]
4.1 |  | CCN(CC)CCN(c1ccc2c(c1)nc(CCc1ccc(C(=N)N)cc1)n2C)S(=O)(=O)c1ccc(C(C)(C)C)cc1 [Example 21, N-{2-[2-(4-amidinophenyl)-ethyl]-1-methyl-benzimidazol-5-yl}-N-diethylaminoethyl-(4-tert-butyl-benzenesulphonamide) dihydrochloride]
